Tests used:
[1] = test system: shedding of KIM-1, renal carcinoma cells 769-P; assay: Shedding of KIM-1 in 769-P cell culture, soluble KIM-1 by ELISA; type: cell-based, human; conditions: 769-P cells, 28 hours; for inhibition of KIM-1 shedding: 32 μM
Procedure: BB-94 (batismatat) and GM6001 (Ilomastat), are two broad spectrum hydroxamic acid-based zinc metalloproteinase inhibitors which inhibit several matrix metalloproteinases (MMP) (20). BB-94 is also a potent inhibitor of TACE (TNF alpha converting enzyme) (18). The activity of these two inhibitors on the shedding of KIM-1 in cell culture was examined.
(§1) Stock solutions of BB-94 and GM6001 were maintained in DMS0 at a concentration of 70 mM for BB-94 and 2.5 mM for GM6001. Compounds were diluted directly into fresh medium to concentrations ranging from 0.5 μm to 32 μm. Renal carcinoma cells 769-P were grown in RPMI medium supplemented with 10% fetal bovine serum, 10 mM HEPES, and 1 mM sodium pyruvate, and in the presence of various concentrations of BB-94 and GM6001 for 28 hours. […] The amount of soluble KIM-1 released into the extracellular milieu during the 28h-period was measured by ELISA (FIG. 5).

[2] = test system: Renal carcinoma cells 769-P; assay: Cell viability with the mitochondria dye MTT; type: cell-based, human; conditions: end of the 28h-culture period, 0.5 to 32 μm
Procedure: as §1

SMILES: CNC(=O)[C@H](Cc1ccccc1)NC(=O)[C@H](CC(C)C)[C@H](CSc1cccs1)C(=O)NO [BB-94, batismatat]
- inhibition of KIM-1 shedding [1]: complete inhibition
- IC50 [1]: ~1 µM
- cytotoxicity (cell viability, MTT) [2]: absence of cytotoxicity

SMILES: CNC(=O)[C@H](Cc1c[nH]c2ccccc12)NC(=O)[C@@H](CC(=O)NO)CC(C)C [GM6001, Ilomastat]
- inhibition of KIM-1 shedding [1]: complete inhibition
- IC50 ([1]; Homo sapiens): ~4 µM
- cytotoxicity (cell viability, MTT) [2]: absence of cytotoxicity

— US7041290B2, “Molecules and methods for inhibiting shedding of KIM-1” (Biogen Idec MA Inc., priority 2001, dated 2006)
